Measurements reported in ChEMBL document CHEMBL4316596, “Antimicrobial Peptides with High Proteolytic Resistance for Combating Gram-Negative Bacteria” (J Med Chem, 2019).

How the values were obtained:
Escherichia coli [1] = assay: Antimicrobial activity against Escherichia coli ATCC 25922 after 24 hrs by NCCLS-protocol based assay; format: functional; details: ATCC 25922, 24 h
Escherichia coli [2] = assay: Antimicrobial activity against Escherichia coli UB1005 after 24 hrs by NCCLS-protocol based assay; format: functional; details: UB1005, 24 h
Escherichia coli [3] = assay: Antimicrobial activity against Escherichia coli 078 after 24 hrs by NCCLS-protocol based assay; format: functional; details: Escherichia coli, 078, 24 h
Escherichia coli [4] = assay: Antimicrobial activity against Escherichia coli K88 after 24 hrs by NCCLS-protocol based assay; format: functional; details: K88, 24 h
Escherichia coli [5] = assay: Antimicrobial activity against Escherichia coli K99 after 24 hrs by NCCLS-protocol based assay; format: functional; details: K99, 24 h
Pseudomonas aeruginosa [6] = assay: Antimicrobial activity against Pseudomonas aeruginosa ATCC 27853 after 24 hrs by NCCLS-protocol based assay; format: functional; details: ATCC 27853, 24 h
Pseudomonas aeruginosa [7] = assay: Antimicrobial activity against Pseudomonas aeruginosa PAO1 after 24 hrs by NCCLS-protocol based assay; format: functional; details: PAO1, 24 h
Pseudomonas aeruginosa [8] = assay: Antimicrobial activity against Pseudomonas aeruginosa CICC 21630 clinical isolates after 24 hrs by NCCLS-protocol based assay; format: functional; details: CICC 21630, 24 h
Pseudomonas aeruginosa [9] = assay: Antimicrobial activity against Pseudomonas aeruginosa 26305 clinical isolates after 24 hrs by NCCLS-protocol based assay; format: functional; details: Pseudomonas aeruginosa, 26305, 24 h
Pseudomonas aeruginosa [10] = assay: Antimicrobial activity against Pseudomonas aeruginosa CICC 21625 clinical isolates after 24 hrs by NCCLS-protocol based assay; format: functional; details: CICC 21625, 24 h
Pseudomonas aeruginosa [11] = assay: Antimicrobial activity against Pseudomonas aeruginosa 25349 clinical isolates after 24 hrs by NCCLS-protocol based assay; format: functional; details: Pseudomonas aeruginosa, 25349, 24 h
Salmonella typhimurium [12] = assay: Antimicrobial activity against Salmonella typhimurium ATCC 14028 after 24 hrs by NCCLS-protocol based assay; format: functional, Salmonella enterica subsp. enterica serovar Typhimurium; details: Salmonella enterica, ATCC 14028, 24 h
Salmonella typhimurium [13] = assay: Antimicrobial activity against Salmonella typhimurium C7731 after 24 hrs by NCCLS-protocol based assay; format: functional, Salmonella enterica subsp. enterica serovar Typhimurium; details: Salmonella enterica, C7731, 24 h
[14] = Antimicrobial activity against Salmonella pullorum C7913 after 24 hrs by NCCLS-protocol based assay; format: functional, Salmonella enterica subsp. enterica serovar Pullorum; details: Salmonella enterica, C7913, 24 h
Acinetobacter baumannii [15] = assay: Antimicrobial activity against Acinetobacter baumannii after 24 hrs by NCCLS-protocol based assay; format: functional
Klebsiella pneumoniae [16] = assay: Antimicrobial activity against Klebsiella pneumoniae after 24 hrs by NCCLS-protocol based assay; format: functional
Escherichia coli [17] = assay: Bactericidal activity against Escherichia coli ATCC 25922 incubated for 4 hrs followed by culture spread on agar plates and cultured overnight; format: functional; details: ATCC 25922, 4 h, read-out: MBC>99.9
Escherichia coli [18] = assay: Bactericidal activity against Escherichia coli ATCC 25922 incubated for 4 hrs followed by culture spread on agar plates and cultured overnight in presence of NaCl; format: functional; details: ATCC 25922, 4 h, read-out: MBC>99.9
Escherichia coli [19] = assay: Bactericidal activity against Escherichia coli ATCC 25922 incubated for 4 hrs followed by culture spread on agar plates and cultured overnight in presence of KCl; format: functional; details: ATCC 25922, 4 h, read-out: MBC>99.9
Escherichia coli [20] = assay: Bactericidal activity against Escherichia coli ATCC 25922 incubated for 4 hrs followed by culture spread on agar plates and cultured overnight in presence of CaCl2; format: functional; details: ATCC 25922, 4 h, read-out: MBC>99.9
Escherichia coli [21] = assay: Bactericidal activity against Escherichia coli ATCC 25922 incubated for 4 hrs followed by culture spread on agar plates and cultured overnight in presence of ZnCl2; format: functional; details: ATCC 25922, 4 h, read-out: MBC>99.9
Escherichia coli [22] = assay: Bactericidal activity against Escherichia coli ATCC 25922 incubated for 4 hrs followed by culture spread on agar plates and cultured overnight in presence of FeCl3; format: functional; details: ATCC 25922, 4 h, read-out: MBC>99.9
Escherichia coli [23] = assay: Bactericidal activity against Escherichia coli ATCC 25922 incubated for 4 hrs followed by culture spread on agar plates and cultured overnight in presence of NH4Cl; format: functional; details: ATCC 25922, 4 h, read-out: MBC>99.9
Escherichia coli [24] = assay: Bactericidal activity against Escherichia coli ATCC 25922 incubated for 4 hrs followed by culture spread on agar plates and cultured overnight in presence of MgCl2; format: functional; details: ATCC 25922, 4 h, read-out: MBC>99.9
Escherichia coli [25] = assay: Bactericidal activity against Escherichia coli ATCC 25922 incubated for 4 hrs followed by culture spread on agar plates and cultured overnight in presence of 50% serum albumin; format: functional; details: ATCC 25922, 4 h, read-out: MBC>99.9
Escherichia coli [26] = assay: Bactericidal activity against Escherichia coli ATCC 25922 incubated for 4 hrs followed by culture spread on agar plates and cultured overnight in presence of 25% serum albumin; format: functional; details: ATCC 25922, 4 h, read-out: MBC>99.9
Escherichia coli [27] = assay: Bactericidal activity against Escherichia coli ATCC 25922 incubated for 4 hrs followed by culture spread on agar plates and cultured overnight in presence of 12.5% serum albumin; format: functional; details: ATCC 25922, 4 h, read-out: MBC>99.9
Escherichia coli [28] = assay: Bactericidal activity against Escherichia coli UB1005 incubated for 4 hrs followed by culture spread on agar plates and cultured overnight; format: functional; details: UB1005, 4 h, read-out: MBC>99.9
Escherichia coli [29] = assay: Bactericidal activity against Escherichia coli 078 incubated for 4 hrs followed by culture spread on agar plates and cultured overnight; format: functional; details: Escherichia coli, 078, 4 h; read-out: MBC>99.9
Escherichia coli [30] = assay: Bactericidal activity against Escherichia coli K88 incubated for 4 hrs followed by culture spread on agar plates and cultured overnight; format: functional; details: K88, 4 h, read-out: MBC>99.9
Escherichia coli [31] = assay: Bactericidal activity against Escherichia coli K99 incubated for 4 hrs followed by culture spread on agar plates and cultured overnight; format: functional; details: K99, 4 h, read-out: MBC>99.9
Pseudomonas aeruginosa [32] = assay: Bactericidal activity against Pseudomonas aeruginosa ATCC 27853 incubated for 4 hrs followed by culture spread on agar plates and cultured overnight; format: functional; details: ATCC 27853, 4 h, read-out: MBC>99.9
Pseudomonas aeruginosa [33] = assay: Bactericidal activity against Pseudomonas aeruginosa PAO1 incubated for 4 hrs followed by culture spread on agar plates and cultured overnight; format: functional; details: PAO1, 4 h, read-out: MBC>99.9
Pseudomonas aeruginosa [34] = assay: Bactericidal activity against Pseudomonas aeruginosa CICC 21630 clinical isolates incubated for 4 hrs followed by culture spread on agar plates and cultured overnight; format: functional; details: CICC 21630, 4 h, read-out: MBC>99.9
Pseudomonas aeruginosa [35] = assay: Bactericidal activity against Pseudomonas aeruginosa 26305 clinical isolates incubated for 4 hrs followed by culture spread on agar plates and cultured overnight; format: functional; details: Pseudomonas aeruginosa, 26305, 4 h; read-out: MBC>99.9
Pseudomonas aeruginosa [36] = assay: Bactericidal activity against Pseudomonas aeruginosa CICC 21625 clinical isolates incubated for 4 hrs followed by culture spread on agar plates and cultured overnight; format: functional; details: CICC 21625, 4 h, read-out: MBC>99.9
Pseudomonas aeruginosa [37] = assay: Bactericidal activity against Pseudomonas aeruginosa 25349 clinical isolates incubated for 4 hrs followed by culture spread on agar plates and cultured overnight; format: functional; details: Pseudomonas aeruginosa, 25349, 4 h; read-out: MBC>99.9
Salmonella typhimurium [38] = assay: Bactericidal activity against Salmonella typhimurium ATCC 14028 incubated for 4 hrs followed by culture spread on agar plates and cultured overnight; format: functional, Salmonella enterica subsp. enterica serovar Typhimurium; details: Salmonella enterica, ATCC 14028, 4 h; read-out: MBC>99.9
Salmonella typhimurium [39] = assay: Bactericidal activity against Salmonella typhimurium C7731 incubated for 4 hrs followed by culture spread on agar plates and cultured overnight; format: functional, Salmonella enterica subsp. enterica serovar Typhimurium; details: Salmonella enterica, C7731, 4 h; read-out: MBC>99.9
[40] = Bactericidal activity against Salmonella pullorum C7913 incubated for 4 hrs followed by culture spread on agar plates and cultured overnight; format: functional, Salmonella enterica subsp. enterica serovar Pullorum; details: Salmonella enterica, C7913, 4 h; read-out: MBC>99.9
Acinetobacter baumannii [41] = assay: Bactericidal activity against Acinetobacter baumannii incubated for 4 hrs followed by culture spread on agar plates and cultured overnight; format: functional; details: read-out: MBC>99.9
Klebsiella pneumoniae [42] = assay: Bactericidal activity against Klebsiella pneumoniae incubated for 4 hrs followed by culture spread on agar plates and cultured overnight; format: functional; details: read-out: MBC>99.9

H-LKPLLKPLLKPLLKPLLKPLLKPL-NH2
MIC95 (Escherichia coli [1]): 1 µM | MIC95 (Escherichia coli [2]): 2 µM | MIC95 (Escherichia coli [3]): 2 µM | MIC95 (Escherichia coli [4]): 1 µM | MIC95 (Escherichia coli [5]): 2 µM | MIC95 (Pseudomonas aeruginosa [6]): 4 µM | MIC95 (Pseudomonas aeruginosa [7]): 4 µM | MIC95 (Pseudomonas aeruginosa [8]): 32 µM | MIC95 (Pseudomonas aeruginosa [9]): 64 µM | MIC95 (Pseudomonas aeruginosa [10]): 64 µM | MIC95 (Pseudomonas aeruginosa [11]): 32 µM | MIC95 (Salmonella typhimurium [12]): 4 µM | MIC95 (Salmonella typhimurium [13]): 8 µM | MIC95 [14]: 4 µM | MIC95 (Acinetobacter baumannii [15]): 4 µM | MIC95 (Klebsiella pneumoniae [16]): 8 µM | MBC (Escherichia coli [17]): 2 µM | MBC (Escherichia coli [18]): 16 µM | MBC (Escherichia coli [19]): 1 µM | MBC (Escherichia coli [20]): > 128 µM | MBC (Escherichia coli [21]): 2 µM | MBC (Escherichia coli [22]): 4 µM | MBC (Escherichia coli [23]): 4 µM | MBC (Escherichia coli [24]): 16 µM | MBC (Escherichia coli [25]): > 128 µM | MBC (Escherichia coli [26]): > 128 µM | MBC (Escherichia coli [27]): 8 µM | MBC (Escherichia coli [28]): 4 µM | MBC (Escherichia coli [29]): 2 µM | MBC (Escherichia coli [30]): 2 µM | MBC (Escherichia coli [31]): 2 µM | MBC (Pseudomonas aeruginosa [32]): 4 µM | MBC (Pseudomonas aeruginosa [33]): 8 µM | MBC (Pseudomonas aeruginosa [34]): 64 µM | MBC (Pseudomonas aeruginosa [35]): > 64 µM | MBC (Pseudomonas aeruginosa [36]): 64 µM | MBC (Pseudomonas aeruginosa [37]): 32 µM | MBC (Salmonella typhimurium [38]): 8 µM | MBC (Salmonella typhimurium [39]): 8 µM | MBC [40]: 8 µM | MBC (Acinetobacter baumannii [41]): 4 µM | MBC (Klebsiella pneumoniae [42]): 8 µM

H-LRPLLRPLLRPLLRPLLRPLLRPL-NH2
MIC95 (Escherichia coli [1]): 2 µM | MIC95 (Escherichia coli [2]): 2 µM | MIC95 (Escherichia coli [3]): 2 µM | MIC95 (Escherichia coli [4]): 2 µM | MIC95 (Escherichia coli [5]): 2 µM | MIC95 (Pseudomonas aeruginosa [6]): 8 µM | MIC95 (Pseudomonas aeruginosa [7]): 4 µM | MIC95 (Pseudomonas aeruginosa [8]): 8 µM | MIC95 (Pseudomonas aeruginosa [9]): 32 µM | MIC95 (Pseudomonas aeruginosa [10]): 32 µM | MIC95 (Pseudomonas aeruginosa [11]): 32 µM | MIC95 (Salmonella typhimurium [12]): 4 µM | MIC95 (Salmonella typhimurium [13]): 2 µM | MIC95 [14]: 2 µM | MIC95 (Acinetobacter baumannii [15]): 2 µM | MIC95 (Klebsiella pneumoniae [16]): 8 µM | MBC (Escherichia coli [17]): 2 µM | MBC (Escherichia coli [18]): 4 µM | MBC (Escherichia coli [19]): 2 µM | MBC (Escherichia coli [20]): > 128 µM | MBC (Escherichia coli [21]): 2 µM | MBC (Escherichia coli [22]): 4 µM | MBC (Escherichia coli [23]): 2 µM | MBC (Escherichia coli [24]): 4 µM | MBC (Escherichia coli [25]): 32 µM | MBC (Escherichia coli [26]): 16 µM | MBC (Escherichia coli [27]): 8 µM | MBC (Escherichia coli [28]): 4 µM | MBC (Escherichia coli [29]): 2 µM | MBC (Escherichia coli [30]): 4 µM | MBC (Escherichia coli [31]): 4 µM | MBC (Pseudomonas aeruginosa [32]): 16 µM | MBC (Pseudomonas aeruginosa [33]): 8 µM | MBC (Pseudomonas aeruginosa [34]): 16 µM | MBC (Pseudomonas aeruginosa [35]): 32 µM | MBC (Pseudomonas aeruginosa [36]): 32 µM | MBC (Pseudomonas aeruginosa [37]): 32 µM | MBC (Salmonella typhimurium [38]): 8 µM | MBC (Salmonella typhimurium [39]): 8 µM | MBC [40]: 4 µM | MBC (Acinetobacter baumannii [41]): 4 µM | MBC (Klebsiella pneumoniae [42]): 8 µM
